Laboratory results: publication PMC11757143, “Generation and characterization of OX40-ligand fusion protein that agonizes OX40 on T-Lymphocytes” (Frontiers in Immunology, 2025)

Tests used:
[1] = tested on: antigen-specific T cell responses of draining lymph node cells; test: Antigen recall responses of dLN cells from TNP-KLH/CFA-immunized mice (cytokine ELISA, MTT proliferation); assay type: in vivo, C57BL/6 mice; conditions: 20 µg i.p. on days 1 and 3, TNP-KLH/CFA day 0, dLN day 7, KLH recall 3 days
Source text: The following reagents were used for the measurement of cytokines from T cells: anti-IL-2 (JES6-1A12, 503701, BioLegend, San Diego, CA, U.S.A.) capture antibody, biotin-anti-IL-2 (JES6-5H4, 503803, BioLegend) detection antibody, anti-IFN-γ (R4-6A2, 505702, BioLegend) capture antibody, biotin-anti-IFN-γ (XMG1.2, 505804, BioLegend) detection antibody, anti-IL-4 (11B11, 504101, BioLegend) capture antibody, biotin-anti-IL-4 (BVD6-24G2, 504201, BioLegend) detection antibody, anti-IL-17A (TC11-18H10.1, 506901, BioLegend) capture antibody, biotin-anti-IL-17A (TC11-8H4, 507001, BioLegend) detection antibody, HRP streptavidin (405210, BioLegend), and 3,3’,5,5’-tetramethylbenzidine (TMB, 421101, BioLegend). The absorbance was measured at 450 nm or 620 nm using a FilterMax F5 (Molecular Devices, San Jose, CA, U.S.A.).
Groups of C57BL/6 mice from both male and female mice aged between 5 and 15 weeks were immunized subcutaneously at the footpad with 100 µg of 2,4,6-trinitrophenyl-conjugated keyhole limpet hemocyanin (TNP-KLH) emulsified in complete Freund’s adjuvant (CFA) (F5881, Merck) on day 0. Recombinant proteins in PBS were injected intraperitoneally on days 1 and 3. […] Cell viability on day 3 was assessed with a 3-(4,5-dimethylthiazol-2-yl)-2,5-diphenyl-tetrazolium (MTT) (M2128, Merck) assay.

OX40-Fc = target: T1, OX40-Fc (Mus musculus, UniProt P47741); set-up: method as in PMID 36450532, PMID 37371066; conditions: previous studies; ref [23], [24]; cited from earlier work
T1 construct: made in house
T1 sequence (P47741 20-211 limits assumed): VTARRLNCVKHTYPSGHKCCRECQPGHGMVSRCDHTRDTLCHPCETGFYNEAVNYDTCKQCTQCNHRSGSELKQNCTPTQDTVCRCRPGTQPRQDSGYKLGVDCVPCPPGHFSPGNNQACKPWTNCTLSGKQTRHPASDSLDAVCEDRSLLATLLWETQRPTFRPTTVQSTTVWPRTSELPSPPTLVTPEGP

Substance	antigen-specific T cell responses (recall IFN-γ, IL-17, IL-4 production and proliferation of dLN cells) [1]	specific interaction with OX40 (OX40-Fc)
Fc-MBL-OX40L: Fusion protein: human IgG1 Fc (hinge, CH2, CH3), PA, MBL collagen-like domain, OX40L THD	failed to effectively stimulate in vivo T cell responses	–
MBL-OX40L: Fusion protein: PA peptide tag, collagen-like domain of mannose-binding lectin, extracellular TNF homology domain of mouse OX40L	–	specifically interact with OX40
